Here are results for two compounds from US20240269304A1, “BCL-XL INHIBITOR ANTIBODY-DRUG CONJUGATES AND METHODS OF USE THEREOF” (Novartis AG, priority 2020, published 2024).

In one assay the test system is EBC-1 xenografts. Nature of the assay: In vivo testing of EpCAM ADCs with paclitaxel, EBC-1 xenografts (Example 17). On the set-up: species or system female nude mice. The following applies: Paclitaxel Alone. As to the method:
EBC-1 cells were cultured at 37° C. (atmosphere of 5% CO2) in DMEM (Gibco 11965-084) supplemented with 10% FBS (HI-FBS #134K19, Tet-free). Treatment with 0.25% Trypsin (Gibco 25200-056) was used for sub-culturing. To establish EBC-1 xenografts, cells were harvested and re-suspended in a 1:1 v/v mixture of phosphate buffered saline and Matrigel. A total of 5×10^6 cells in a volume of 150 μL were injected subcutaneously in the flanks of female nude mice (Charles River, USA). Tumor growth was monitored regularly post cell inoculation and animals were randomized into treatment groups (n=8) with a mean tumor volume of about 210 mm^3. EpCAM-DANAPA-L11C-P25 ADC, 3207-DANAPA-L11C-P25 isotype control ADC, and EpCAM-DANAPA CysMab control antibody were all dosed in combination with paclitaxel (LC Laboratories, Woburn, MA, Cat #: P-9600) as indicated in FIG. 13. The ADCs and CysMab antibody were administered intravenously (i.v.) once at the start of treatment at 30 mg/kg. Paclitaxel was administered i.v. once at 12.5 mg/kg, 24 h after the ADC or CysMab dose. All reagents were dosed at 10 mL/kg based on the individual mouse body weight. The ADCs and CysMab were formulated at 3 mg/mL in PBS on the day of treatment. Paclitaxel was reconstituted in 50% Ethanol+50% Cremophor EL (Kolliphor EL) at a concentration of 6 mg/mL, and then further diluted to 1.25 mg/mL with sterile saline prior to administration on the day of treatment.
Tumor volume data were analyzed for statistical difference relative to the EpCAM-DANAPA-L 11C-P25 ADC+ paclitaxel combination group. Unpaired two-tailed T-tests were used to make comparisons between groups.
As a measure of efficacy, %T/C values were calculated according to the formula: […]
Tumor regression was calculated according to the formula: […]
Δtumor volumes represent mean tumor volumes on the measurement day minus the mean tumor volume at the start of treatment. The Δtumor volume control value specified above refers to mean tumor volume changes in the vehicle group.

The subject of assay [1] is H1650 human non-small cell lung carcinoma (NSCLC) model. Nature of the assay: In vivo efficacy of EGFR2-Bcl-xL inhibitor ADC in combination with docetaxel, H1650 xenografts (Example 15). On the set-up: species or system female SCID mice. Particulars: Vehicle iv + docetaxel 7.5 mg/kg qdx1 iv 24 h later. The protocol: H1650 cells were cultured at 37° C. in an atmosphere of 5% CO2 in air in RPMI1640 (BioConcept Ltd. Amimed, #1-41F01-1) supplemented with 10% FCS (BioConcept Ltd. Amimed, #2-01F30-1), 2 mM L-glutamine (BioConcept Ltd. Amimed, #5-10K00-H) and 1 mM sodium pyruvate (BioConcept Ltd. Amimed, #5-60F00-H), 10 mM HEPES (Gibco #11560496) and D-glucose 1.25g/500 mL medium (Gibco, #A24940-01). To establish H1650 xenografts, cells were harvested and re-suspended in HBSS (Gibco, #14175)/Matrigel (Corning #354234) (1:1 v/v) before injecting 100 μL containing 5×10^6 cells subcutaneously in the flanks of female SCID mice (Taconic, Europe). Tumor growth was monitored regularly post cell inoculation and animals were randomized into treatment groups (n=6) with a mean tumor volume of about 150 mm^3. The ADCs were administered intravenously (i.v.) once at the start of treatment at 30 mg/kg in combination with 7.5 mg/kg docetaxel (Zentiva: 1 ml/20 mg) which was administered i.v. once 24 h after the ADCs. Doses were adjusted to individual mouse body weights. The i.v. dose volume was 10 ml/kg and each ADC was dissolved in 0.9% (w/v) NaCl in water and the docetaxel stock solution was diluted to appropriate concentration with 5% (w/v) sterile glucose solution prior to administration.
Tumor volume data on day 21 and 28 post treatment initiation were analyzed for statistical difference relative to vehicle control group and EGFR-Bcl-xLi (L109A-P1) ADC, using one way ANOVA post hoc Tukey's multiple comparisons test (Indigo Software). Results are presented as mean±SEM.
As a measure of efficacy the %T/C value was calculated on day 21 according to:
(Δtumor volume treated/Δtumor volume control)*100 Tumor regression was calculated according to:
−(Δtumor volume treated/tumor volume treated at start)*100
Where Δtumor volumes represent the mean tumor volume on the evaluation day minus the mean tumor volume at the start of the experiment.

Take `CC(=O)O[C@H]1C(=O)[C@@]2(C)[C@H]([C@H](OC(=O)c3ccccc3)[C@]3(O)C[C@H](OC(=O)[C@H](O)[C@@H](NC(=O)c4ccccc4)c4ccccc4)C(C)=C1C3(C)C)[C@]1(OC(C)=O)CO[C@@H]1C[C@@H]2O` [Paclitaxel, paclitaxel]: in the assay on EBC-1 xenografts (Day 10), the “% T/C (Day of Evaluation)” value turned out to be 34% and the “ΔTumor volume (mm^3 ± SEM) (Day of Evaluation)” value is recorded as 510.8 ± 158.5 mm^3. The “Significance vs EpCAM-DANAPA-L11C-P25 ADC on Day 9 (Day of Evaluation)” value in the assay with EBC-1 xenografts (Day 10, unpaired two-tailed T-test vs EpCAM-DANAPA-L11C-P25 ADC + paclitaxel group) is listed as “P = 0.0014”. Besides, in the assay with EBC-1 xenografts (Day 32, tumors regressed to 0 mm^3), the “Complete Responders (Day of Evaluation)” value is given as 0/8.

With `CC(=O)O[C@@]12CO[C@@H]1C[C@H](O)[C@@]1(C)C(=O)[C@H](O)C3=C(C)[C@@H](OC(=O)[C@H](O)[C@@H](NC(=O)OC(C)(C)C)c4ccccc4)C[C@@](O)([C@@H](OC(=O)c4ccccc4)[C@H]21)C3(C)C` [docetaxel], the “Response on day 21 T/C (%)” value in assay [1] (day 21) came to 51%. For the same compound, in assay [1] (day 21, mean), the “ΔTumor volume (mm^3) D21” value was 396.59 mm^3. In addition, the “Maximum regression (day)” value in assay [1] (maximum on D7) is −1. Moreover, in assay [1] (vs IgG CysMab DANAPA-L109A-P1 ADC + docetaxel, printed with (growth)), the “Significance On D21 vs Isotype-DANAPA-L109A-P1-ADC group” value was “P < 0.05 (growth)”.
